{"source": "patent US10273222B2", "about": "(CELGENE QUANTICEL RESEARCH, INC., priority 2013, dated 2019)", "key": {"JMJD2A": {"target": "JMJD2A (Homo sapiens (Human), UniProt O75164)", "sequence (O75164 1-350)": "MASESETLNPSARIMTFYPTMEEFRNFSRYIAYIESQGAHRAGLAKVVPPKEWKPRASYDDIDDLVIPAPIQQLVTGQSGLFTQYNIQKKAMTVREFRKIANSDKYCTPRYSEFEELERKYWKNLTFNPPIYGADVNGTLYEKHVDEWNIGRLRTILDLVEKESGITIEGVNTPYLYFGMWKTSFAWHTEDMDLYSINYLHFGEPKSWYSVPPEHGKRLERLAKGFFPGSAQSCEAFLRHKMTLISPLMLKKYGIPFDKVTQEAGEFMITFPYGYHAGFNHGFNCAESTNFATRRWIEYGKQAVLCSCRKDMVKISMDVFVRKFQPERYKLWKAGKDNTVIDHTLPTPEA", "assay": "JMJD2A in vitro enzyme inhibition assay (TR-FRET)", "format": "biochemical", "protocol": "This assay determines the ability of a test compound to inhibit Jarid1A, Jarid1B, JMJD2C, and JMJD2A demethylase activity. […] Baculovirus expressed JMJD2A (GenBank Accession #NM_014663, AA 1-350) was purchased from BPS Bioscience (Cat#50123).\nThe ability of test compounds to inhibit the activity of JMJD2A was determined in 384-well plate format under the following reaction conditions: 2 nM JMJD2A, 300 nM H3K9me3-biotin labeled peptide (Anaspec cat #64360), 2 μM alpha-ketoglutaric acid in assay buffer of 50 mM HEPES, pH7.3, 0.005% Brij35, 0.5 mM TCEP, 0.2 mg/ml BSA, 50 μM sodium L-ascorbate, and 2 μM ammonium iron(II) sulfate. Reaction product was determined quantitatively by TR-FRET after the addition of detection reagent Phycolink Streptavidin-allophycocyanin (Prozyme) and Europium-anti-di-methylated histone H3 lysine 9 (H3K9me2) antibody (PerkinElmer) in the presence of 5 mM EDTA in LANCE detection buffer (PerkinElmer) at a final concentration of 50 nM and 1 nM, respectively.\nThe assay reaction was initiated by the following: 2 μl of the mixture of 900 nM H3K9me3-biotin labeled peptide and 6 μM alpha-ketoglutaric acid with 2 μl of 11-point serial diluted inhibitor in 3% DMSO were added to each well of plate, followed by the addition of 2 μl of 6 nM JMJD2A to initiate the reaction. The reaction mixture was incubated at room temperature for 30 minutes, and terminated by the addition of 6 μl of 5 mM EDTA in LANCE detection buffer containing 100 nM Phycolink Streptavidin-allophycocyanin and 2 nM Europium-anti-H3K9me2 antibody. Plates were read by EnVisionMultilabel Reader in TR-FRET mode (excitation at 320 nm, emission at 615 nm and 665 nm) after 1 hour incubation at room temperature. A ratio was calculated (665/615) for each well and fitted to determine inhibition constant (IC50)."}, "JMJD2C": {"target": "JMJD2C (Homo sapiens (Human), UniProt Q9H3R0)", "sequence (Q9H3R0 2-372)": "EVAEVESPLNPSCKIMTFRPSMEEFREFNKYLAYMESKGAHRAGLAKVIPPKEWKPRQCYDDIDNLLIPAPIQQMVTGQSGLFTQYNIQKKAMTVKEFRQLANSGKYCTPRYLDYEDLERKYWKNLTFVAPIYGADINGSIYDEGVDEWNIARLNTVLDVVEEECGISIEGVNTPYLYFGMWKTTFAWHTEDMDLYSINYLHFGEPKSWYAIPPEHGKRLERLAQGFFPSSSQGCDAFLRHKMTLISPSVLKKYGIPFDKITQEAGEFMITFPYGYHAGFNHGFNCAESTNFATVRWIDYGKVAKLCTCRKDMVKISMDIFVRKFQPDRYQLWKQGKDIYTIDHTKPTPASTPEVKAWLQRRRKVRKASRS", "assay": "JMJD2C in vitro enzyme inhibition assay (TR-FRET)", "format": "biochemical", "protocol": "This assay determines the ability of a test compound to inhibit Jarid1A, Jarid1B, JMJD2C, and JMJD2A demethylase activity. […] Baculovirus expressed JMJD2C (GenBank Accession #BC143571, AA 2-372) was purchased from BPS Bioscience (Cat#50105).\nThe ability of test compounds to inhibit the activity of JMJD2C was determined in 384-well plate format under the following reaction conditions: 0.3 nM JMJD2C, 300 nM H3K9me3-biotin labeled peptide (Anaspec cat #64360), 2 μM alpha-ketoglutaric acid in assay buffer of 50 mM HEPES, pH7.3, 0.005% Brij35, 0.5 mM TCEP, 0.2 mg/ml BSA, 50 μM sodium L-ascorbate, and 2 μM ammonium iron(II) sulfate. Reaction product was determined quantitatively by TR-FRET after the addition of detection reagent Phycolink Streptavidin-allophycocyanin (Prozyme) and Europium-anti-di-methylated histone H3 lysine 9 (H3K9me2) antibody (PerkinElmer) in the presence of 5 mM EDTA in LANCE detection buffer (PerkinElmer) at a final concentration of 50 nM and 1 nM, respectively.\nThe assay reaction was initiated by the following: 2 μl of the mixture of 900 nM H3K9me3-biotin labeled peptide and 6 μM alpha-ketoglutaric acid with 2 μl of 11-point serial diluted inhibitor in 3% DMSO were added to each well of the plate, followed by the addition of 2 μl of 0.9 nM JMJD2C to initiate the reaction. The reaction mixture was incubated at room temperature for 30 minutes, and terminated by the addition of 6 μl of 5 mM EDTA in LANCE detection buffer containing 100 nM Phycolink Streptavidin-allophycocyanin and 2 nM Europium-anti-H3K9me2 antibody. Plates were read by EnVisionMultilabel Reader in TR-FRET mode (excitation at 320 nm, emission at 615 nm and 665 nm) after 1 hour incubation at room temperature. A ratio was calculated (665/615) for each well and fitted to determine inhibition constant (IC50)."}, "Jarid1B": {"target": "Jarid1B (Homo sapiens (Human), UniProt Q9UGL1)", "sequence (Q9UGL1 2-751)": "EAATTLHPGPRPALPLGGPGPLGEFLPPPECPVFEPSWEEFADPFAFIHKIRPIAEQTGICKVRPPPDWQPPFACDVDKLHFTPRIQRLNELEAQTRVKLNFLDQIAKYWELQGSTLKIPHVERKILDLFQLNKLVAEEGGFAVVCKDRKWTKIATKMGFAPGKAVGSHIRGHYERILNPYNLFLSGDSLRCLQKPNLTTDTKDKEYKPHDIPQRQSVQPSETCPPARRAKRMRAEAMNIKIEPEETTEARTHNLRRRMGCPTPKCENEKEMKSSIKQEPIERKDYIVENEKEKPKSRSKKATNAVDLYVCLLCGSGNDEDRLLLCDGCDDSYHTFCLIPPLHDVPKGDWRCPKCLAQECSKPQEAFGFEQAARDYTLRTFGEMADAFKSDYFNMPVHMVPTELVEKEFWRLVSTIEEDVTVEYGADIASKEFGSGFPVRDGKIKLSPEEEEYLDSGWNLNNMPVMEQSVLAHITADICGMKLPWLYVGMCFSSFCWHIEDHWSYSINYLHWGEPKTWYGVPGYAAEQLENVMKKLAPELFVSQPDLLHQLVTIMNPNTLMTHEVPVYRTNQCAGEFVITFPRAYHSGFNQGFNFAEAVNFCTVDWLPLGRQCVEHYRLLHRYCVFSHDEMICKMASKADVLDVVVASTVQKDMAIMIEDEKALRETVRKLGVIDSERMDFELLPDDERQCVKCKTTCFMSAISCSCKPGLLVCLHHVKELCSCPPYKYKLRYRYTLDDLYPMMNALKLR", "assay": "Jarid1B in vitro enzyme inhibition assay (TR-FRET)", "format": "biochemical", "protocol": "This assay determines the ability of a test compound to inhibit Jarid1A, Jarid1B, JMJD2C, and JMJD2A demethylase activity.\nThe ability of test compounds to inhibit the activity of Jarid1B was determined in 384-well plate format under the following reaction conditions: 0.8 nM Jarid1B, 300 nM H3K4me3-biotin labeled peptide (Anaspec cat #64357), 2 μM alpha-ketoglutaric acid in assay buffer of 50 mM HEPES, pH7.3, 0.005% Brij35, 0.5 mM TCEP, 0.2 mg/ml BSA, 50 μM sodium L-ascorbate, and 2 μM ammonium iron(II) sulfate. Reaction product was determined quantitatively by TR-FRET after the addition of detection reagent Phycolink Streptavidin-allophycocyanin (Prozyme) and Europium-anti-mono- or di-methylated histone H3 lysine 4 (H3K4me1-2) antibody (PerkinElmer) in the presence of 5 mM EDTA in LANCE detection buffer (PerkinElmer) at a final concentration of 25 nM and 1 nM, respectively.\nThe assay reaction was initiated by the following: 2 μl of the mixture of 900 nM H3K4me3-biotin labeled peptide and 6 μM alpha-ketoglutaric acid with 2 μl of 11-point serial diluted inhibitor in 3% DMSO was added to each well of the plate, followed by the addition of 2 μl of 2.4 nM Jarid1B to initiate the reaction. The reaction mixture was incubated at room temperature for 30 minutes, and terminated by the addition of 6 μl of 5 mM EDTA in LANCE detection buffer containing 50 nM Phycolink Streptavidin-allophycocyanin and 2 nM Europium-anti-H3K4me1-2 antibody. Plates were read by EnVisionMultilabel Reader in TR-FRET mode (excitation at 320 nm, emission at 615 nm and 665 nm) after 1 hour incubation at room temperature. A ratio was calculated (665/615) for each well and fitted to determine inhibition constant (IC50)."}, "Jarid1A": {"target": "Jarid1A (Homo sapiens (Human), UniProt P29375)", "sequence (P29375 1-1090)": "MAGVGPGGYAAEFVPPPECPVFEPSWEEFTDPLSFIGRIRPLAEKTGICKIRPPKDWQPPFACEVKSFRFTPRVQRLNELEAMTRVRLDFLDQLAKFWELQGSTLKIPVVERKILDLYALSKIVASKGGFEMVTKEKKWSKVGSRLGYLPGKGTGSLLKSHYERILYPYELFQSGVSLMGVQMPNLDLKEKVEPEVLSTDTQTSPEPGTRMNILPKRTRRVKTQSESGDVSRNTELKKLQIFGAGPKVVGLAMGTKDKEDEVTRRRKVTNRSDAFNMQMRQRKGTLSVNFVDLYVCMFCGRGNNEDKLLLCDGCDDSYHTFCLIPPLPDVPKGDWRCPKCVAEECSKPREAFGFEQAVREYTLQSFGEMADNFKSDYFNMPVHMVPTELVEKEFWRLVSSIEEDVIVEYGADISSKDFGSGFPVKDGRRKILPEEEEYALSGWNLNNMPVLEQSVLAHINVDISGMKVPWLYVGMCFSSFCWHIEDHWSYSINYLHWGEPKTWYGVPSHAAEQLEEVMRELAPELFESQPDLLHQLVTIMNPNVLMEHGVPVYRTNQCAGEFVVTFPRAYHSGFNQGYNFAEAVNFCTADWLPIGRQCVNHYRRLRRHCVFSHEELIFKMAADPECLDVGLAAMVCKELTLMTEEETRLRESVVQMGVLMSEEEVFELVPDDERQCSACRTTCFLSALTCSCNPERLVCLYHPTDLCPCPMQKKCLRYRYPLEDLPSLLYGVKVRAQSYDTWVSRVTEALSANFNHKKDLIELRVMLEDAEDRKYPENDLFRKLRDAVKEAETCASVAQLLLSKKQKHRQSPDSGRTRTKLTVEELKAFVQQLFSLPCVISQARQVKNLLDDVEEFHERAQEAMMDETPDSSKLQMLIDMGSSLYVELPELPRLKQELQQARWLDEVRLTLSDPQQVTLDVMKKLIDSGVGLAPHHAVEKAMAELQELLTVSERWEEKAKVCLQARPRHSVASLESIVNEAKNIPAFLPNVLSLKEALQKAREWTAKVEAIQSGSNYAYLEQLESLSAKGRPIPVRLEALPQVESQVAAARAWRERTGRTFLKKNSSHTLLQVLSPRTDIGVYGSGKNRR", "assay": "Jarid1A in vitro enzyme inhibition assay (TR-FRET)", "format": "biochemical", "from_the_text": "The enzymatic assay of Jarid1A activity is based upon Time Resolved-Fluorescence Resonance Energy Transfer (TR-FRET) detection."}, "FBXL10": {"target": "FBXL10 (Homo sapiens (Human), UniProt Q8NHM5)", "sequence (Q8NHM5 1-650)": "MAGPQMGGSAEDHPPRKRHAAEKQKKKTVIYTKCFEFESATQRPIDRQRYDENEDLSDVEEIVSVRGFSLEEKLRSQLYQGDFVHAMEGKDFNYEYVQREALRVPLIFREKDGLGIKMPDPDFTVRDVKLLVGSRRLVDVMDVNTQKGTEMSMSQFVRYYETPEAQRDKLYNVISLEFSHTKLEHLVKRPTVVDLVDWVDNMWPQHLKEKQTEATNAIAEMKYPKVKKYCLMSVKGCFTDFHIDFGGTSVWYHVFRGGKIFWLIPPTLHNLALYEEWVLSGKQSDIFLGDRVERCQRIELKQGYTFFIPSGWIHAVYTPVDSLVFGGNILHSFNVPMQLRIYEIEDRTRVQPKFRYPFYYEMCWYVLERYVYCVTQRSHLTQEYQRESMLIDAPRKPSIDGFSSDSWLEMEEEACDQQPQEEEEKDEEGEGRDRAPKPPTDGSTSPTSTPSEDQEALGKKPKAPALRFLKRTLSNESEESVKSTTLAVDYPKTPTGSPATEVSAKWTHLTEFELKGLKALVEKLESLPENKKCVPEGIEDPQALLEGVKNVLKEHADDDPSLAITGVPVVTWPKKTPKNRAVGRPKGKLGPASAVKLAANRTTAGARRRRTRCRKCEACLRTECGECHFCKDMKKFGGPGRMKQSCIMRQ", "assay": "FBXL10 in vitro enzyme inhibition assay (AlphaScreen)", "format": "biochemical", "procedure,_shortened": "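AlphaScreen read-out of H3K36me1 product, detected with anti-H3K36me1 antibody plus streptavidin donor and Protein A acceptor beads (final 10 μg/ml) in 50 mM HEPES pH 7.3, 10 mM NaCl, 0.005% Brij35, 5 mM EDTA, 2 mg/ml BSA. Beads incubated 2 h to overnight at room temperature; IC50 derived from AlphaScreen signal.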"}, "KDM5A and KDM5B": {"tested_on": "KDM5A and KDM5B", "assay": "In vitro cell-based assay: tri-methyl H3K4 immuno-blotting in ZR-75-1 cells (cellular inhibition of KDM5A/B)", "conditions": "ZR-75-1 breast cancer cells, 72 hours, tri-methylated H3K4 level; read-out: IC50 ZR-75-1 cell-MOA", "protocol": "This quantitative immuno-blotting assay measures the amount tri-methylated histone H3 at amino acid Lysine number 4, a specific substrate and product of the direct enzymatic activity of the histone demethylases KDM5A and KDM5B from extracts of the ZR-75-1 breast cancer cell line.\nThis assay is a fluorometric immunoassay for the quantification of tri-methyl H3K4 extracted from cells treated with test compound and is used as a measure of the cellular inhibition of KDM5A/B.\nExtracts were prepared containing all of the cellular histone material using detergent based lysis and sonication methods. These lysates were subsequently normalized for total protein content using a colorimetric bicinchonic acid assay (MicroBCA Pierce/Thermo Scientific). Normalized cell extracts were then subjected to typical immuno-blotting procedures using NuPage reagents (Life Technologies). Electrophoretically separated histones were then transferred and immobilized using polyvinylidene difluoride membrane (Immobilon-FL Millipore). The amount of tri-methylated lysine 4 of histone H3 was detected using an antibody specific to the tri-methylated state (Cell Signaling Technologies) and quantified on an infrared imager using a densitometry software package (Odyssey CLx, Image Studio, Li-Cor). This background subtracted densitometry value was reported as a ration of the GAPDH amount for that sample and then calculated as a percent of the DMSO treated sample. The software package XL-fit (IDBS) was then used to calculate a relative IC50 value for the dilution series of a given test compound according to the equation: fit=(D+((Vmax*(x^n))/((x^n)+(Km^n))))."}}}
{"compound": "O=C(O)c1ccnc(-c2cn(C3Cc4ccccc4C3)cn2)c1", "note": "[Example 99, 2-[1-(2,3-dihydro-1H-inden-2-yl)imidazol-4-yl]pyridine-4-carboxylic acid]", "values": [{"measurement": "IC50", "setting": "JMJD2A", "value": "100 to 1000", "unit": "nM"}, {"measurement": "IC50", "setting": "JMJD2C", "value": "100 to 1000", "unit": "nM"}, {"measurement": "IC50", "setting": "Jarid1B", "value": "≤ 100", "unit": "nM"}, {"measurement": "IC50", "setting": "Jarid1A", "value": "≤ 100", "unit": "nM"}, {"measurement": "IC50", "setting": "FBXL10", "value": "≤ 100", "unit": "nM"}, {"measurement": "IC50", "setting": "KDM5A and KDM5B", "value": "1000 to 10000", "unit": "nM"}]}
{"compound": "O=C(O)c1ccnc(-c2cn(Cc3ccc(F)cc3)cn2)c1", "note": "[Example 101, 2-[1-[(4-fluorophenyl)methyl]imidazol-4-yl]pyridine-4-carboxylic acid]", "values": [{"measurement": "IC50", "setting": "JMJD2A", "value": "100 to 1000", "unit": "nM"}, {"measurement": "IC50", "setting": "JMJD2C", "value": "100 to 1000", "unit": "nM"}, {"measurement": "IC50", "setting": "Jarid1B", "value": "≤ 100", "unit": "nM"}, {"measurement": "IC50", "setting": "Jarid1A", "value": "≤ 100", "unit": "nM"}, {"measurement": "IC50", "setting": "FBXL10", "value": "≤ 100", "unit": "nM"}, {"measurement": "IC50", "setting": "KDM5A and KDM5B", "value": "1000 to 10000", "unit": "nM"}]}
{"compound": "O=C(O)c1ccnc(-c2cn(Cc3ccccc3F)cn2)c1", "note": "[Example 102, 2-[1-[(2-fluorophenyl)methyl]imidazol-4-yl]pyridine-4-carboxylic acid]", "values": [{"measurement": "IC50", "setting": "JMJD2A", "value": "100 to 1000", "unit": "nM"}, {"measurement": "IC50", "setting": "JMJD2C", "value": "100 to 1000", "unit": "nM"}, {"measurement": "IC50", "setting": "Jarid1B", "value": "≤ 100", "unit": "nM"}, {"measurement": "IC50", "setting": "Jarid1A", "value": "≤ 100", "unit": "nM"}, {"measurement": "IC50", "setting": "FBXL10", "value": "≤ 100", "unit": "nM"}, {"measurement": "IC50", "setting": "KDM5A and KDM5B", "value": "1000 to 10000", "unit": "nM"}]}
{"compound": "CC(c1ccccc1)n1cnc(-c2cc(C(=O)O)ccn2)c1", "note": "(stereo not drawn) [Example 103]", "values": [{"measurement": "IC50", "setting": "JMJD2A", "value": "≤ 100", "unit": "nM"}, {"measurement": "IC50", "setting": "JMJD2C", "value": "≤ 100", "unit": "nM"}, {"measurement": "IC50", "setting": "Jarid1B", "value": "≤ 100", "unit": "nM"}, {"measurement": "IC50", "setting": "Jarid1A", "value": "≤ 100", "unit": "nM"}, {"measurement": "IC50", "setting": "FBXL10", "value": "≤ 100", "unit": "nM"}, {"measurement": "IC50", "setting": "KDM5A and KDM5B", "value": "1000 to 10000", "unit": "nM"}]}
{"compound": "CC(C)(Cn1cnc(-c2cc(C(=O)O)ccn2)c1)c1ccccc1Cl", "note": "[Example 105, 2-[1-[2-(2-chlorophenyl)-2-methylpropyl]imidazol-4-yl]pyridine-4-carboxylic acid]", "values": [{"measurement": "IC50", "setting": "JMJD2A", "value": "100 to 1000", "unit": "nM"}, {"measurement": "IC50", "setting": "JMJD2C", "value": "1000 to 10000", "unit": "nM"}, {"measurement": "IC50", "setting": "Jarid1B", "value": "≤ 100", "unit": "nM"}, {"measurement": "IC50", "setting": "Jarid1A", "value": "≤ 100", "unit": "nM"}, {"measurement": "IC50", "setting": "FBXL10", "value": "≤ 100", "unit": "nM"}, {"measurement": "IC50", "setting": "KDM5A and KDM5B", "value": "1000 to 10000", "unit": "nM"}]}
